# Legend:
# [1] = Competitive slurry, inter-conversion of Type A and Type B; type: physicochemical
# [2] = Solid stability evaluation for 1/2/4 weeks; details: for HPLC purity change after solid stability / form change after solid stability: all storage conditions;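 as to all read-outs here: Solid-state physical and chemical stability tracked by XRPD for form, KF for water content, and HPLC for purity and assay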
# Protocol: Type A/B were stored under the conditions of 60° C., 25° C./60% RH, 25° C./92.5% RH and 40° C./75% RH for 1/2/4 weeks for solid stability evaluation. Amorphous was stored under the conditions of 25° C./60% RH and 40° C./75% RH for 1/2/4 weeks for solid stability evaluation. The physical and chemical stability were evaluated by X-ray powder diffraction (XRPD), thermo gravimetric analysis (TGA)/Karl Fischer (KF), differential scanning calorimetry (DSC)/modulated differential I scanning calorimetry (mDSC), high performance liquid chromatography (HPLC) purity and assay, respectively.
# XRPD, TGA, DSC and KF in this example are under the same conditions with those described in Example 2.
# Agilent 1260 were utilized and detailed chromatographic conditions are listed in
# [3] = DVS water uptake; type: physicochemical
# Protocol: DVS was measured via a SMS (Surface Measurement Systems) DVS Intrinsic or Intrinsic Plus. The relative humidity at 25° C. were calibrated against deliquescence point of LiCl, Mg(NO3)2 and KCl.
# [4] = Polymorph characterization: form conversion on drying; type: physicochemical
# Protocol: Using ABT-301 Type A (Sample name: ABT-301, CP ID: 826543-01-A) as starting material, a total of 100 polymorph screening experiments were performed, using methods of vapor-solution diffusion, vapor-solid diffusion, slow evaporation, slurry (RT and 50° C.), temperature cycling, slow cooling, anti-solvent addition and grinding.
compound,measurement,setting,value
"O=C(/C=C/c1ccc2c(c1)CCN2S(=O)(=O)c1ccccc1)NO [Type B, (E)-N-hydroxy-3-(1-(phenylsulfonyl)indolin-5-yl) acrylamide]",water activity at which the form was obtained in competitive slurry,"[1]; t-Butanol and t-Butanol/H2O, RT, water activity calculated from KF by COSMOlogic",≤ 0.17
same,Assay,"[2]; 25° C./60% RH, 1 week",97.8%
same,Form (XRPD),"[2]; 25° C./60% RH, 1 week",Type B
same,HPLC purity,"[2]; 25° C./60% RH, 1 week",99.85 Area %
same,Assay,"[2]; 25° C./60% RH, 2 weeks",96.8%
same,Form (XRPD),"[2]; 25° C./60% RH, 2 weeks",Type B
same,HPLC purity,"[2]; 25° C./60% RH, 2 weeks",99.85 Area %
same,Assay,"[2]; 25° C./60% RH, 4 weeks",98.2%
same,Form (XRPD),"[2]; 25° C./60% RH, 4 weeks",Type B
same,HPLC purity,"[2]; 25° C./60% RH, 4 weeks",99.86 Area %
same,KF (water content),"[2]; 25° C./60% RH, 4 weeks",2.0658%
same,Assay,"[2]; 40° C./75% RH, 1 week",97.6%
same,Form (XRPD),"[2]; 40° C./75% RH, 1 week",Type B
same,HPLC purity,"[2]; 40° C./75% RH, 1 week",99.85 Area %
same,Assay,"[2]; 40° C./75% RH, 2 weeks",97.1%
same,Form (XRPD),"[2]; 40° C./75% RH, 2 weeks",Type B
same,HPLC purity,"[2]; 40° C./75% RH, 2 weeks",99.84 Area %
same,Assay,"[2]; 40° C./75% RH, 4 weeks",97.8%
same,Form (XRPD),"[2]; 40° C./75% RH, 4 weeks",Type B
same,HPLC purity,"[2]; 40° C./75% RH, 4 weeks",99.85 Area %
same,KF (water content),"[2]; 40° C./75% RH, 4 weeks",0.8491%
same,Assay,"[2]; 60° C., 1 week",98.0%
same,Form (XRPD),"[2]; 60° C., 1 week",Type B
same,HPLC purity,"[2]; 60° C., 1 week",99.84 Area %
same,Assay,"[2]; 60° C., 2 weeks",96.5%
same,Form (XRPD),"[2]; 60° C., 2 weeks",Type B
same,HPLC purity,"[2]; 60° C., 2 weeks",99.80 Area %
same,Assay,"[2]; 60° C., 4 weeks",97.9%
same,Form (XRPD),"[2]; 60° C., 4 weeks",Type B
same,HPLC purity,"[2]; 60° C., 4 weeks",99.76 Area %
same,KF (water content),"[2]; 60° C., 4 weeks",1.9894%
same,Assay,[2]; Initial,96.8%
same,Form (XRPD),[2]; Initial,Type B
same,HPLC purity,[2]; Initial,99.85 Area %
same,KF (water content),[2]; Initial,0.5387%
same,Assay,"[2]; […], 1 week",97.9%
same,Form (XRPD),"[2]; […], 1 week",Type B
same,HPLC purity,"[2]; […], 1 week",99.85 Area %
same,Assay,"[2]; […], 2 weeks",96.8%
same,Form (XRPD),"[2]; […], 2 weeks",Type B
same,HPLC purity,"[2]; […], 2 weeks",99.85 Area %
same,Assay,"[2]; […], 4 weeks",98.1%
same,Form (XRPD),"[2]; […], 4 weeks",Type B
same,HPLC purity,"[2]; […], 4 weeks",99.85 Area %
same,KF (water content),"[2]; […], 4 weeks",1.8514%
same,HPLC purity change after solid stability,[2]; 4 weeks,"no form change, or obvious HPLC purity change"
same,form change after solid stability,[2]; 4 weeks,no form change
same,water uptake (DVS),[3]; 25° C./80% RH,0.1039%
same,form change after DVS test (XRPD),[3]; after DVS test,no form change
"O=C(/C=C/c1ccc2c(c1)CCN2S(=O)(=O)c1ccccc1)NO [Amorphous, (E)-N-hydroxy-3-(1-(phenylsulfonyl)indolin-5-yl) acrylamide]",Assay,"[2]; 25° C./60% RH, 1 week",91.3%
same,Form (XRPD),"[2]; 25° C./60% RH, 1 week",Type A
same,HPLC purity,"[2]; 25° C./60% RH, 1 week",99.71 Area %
same,Assay,"[2]; 25° C./60% RH, 2 weeks",92.2%
same,Form (XRPD),"[2]; 25° C./60% RH, 2 weeks",Type A
same,HPLC purity,"[2]; 25° C./60% RH, 2 weeks",99.76 Area %
same,Assay,"[2]; 25° C./60% RH, 4 weeks",90.7%
same,Form (XRPD),"[2]; 25° C./60% RH, 4 weeks",Type A
same,HPLC purity,"[2]; 25° C./60% RH, 4 weeks",99.81 Area %
same,Assay,"[2]; 40° C./75% RH, 1 week",91.5%
same,Form (XRPD),"[2]; 40° C./75% RH, 1 week",Type A
same,HPLC purity,"[2]; 40° C./75% RH, 1 week",99.75 Area %
same,Assay,"[2]; 40° C./75% RH, 2 weeks",92.1%
same,Form (XRPD),"[2]; 40° C./75% RH, 2 weeks",Type A
same,HPLC purity,"[2]; 40° C./75% RH, 2 weeks",99.78 Area %
same,Assay,"[2]; 40° C./75% RH, 4 weeks",90.6%
same,Form (XRPD),"[2]; 40° C./75% RH, 4 weeks",Type A
same,HPLC purity,"[2]; 40° C./75% RH, 4 weeks",99.84 Area %
same,Assay,[2]; Initial,91.5%
same,Form (XRPD),[2]; Initial,Amorphous
same,HPLC purity,[2]; Initial,99.84 Area %
same,HPLC purity change after solid stability,[2]; 4 weeks,no obvious HPLC purity change
same,form change after solid stability,[2]; 4 weeks,converted to Type A
"O=C(/C=C/c1ccc2c(c1)CCN2S(=O)(=O)c1ccccc1)NO [Type Q, (E)-N-hydroxy-3-(1-(phenylsulfonyl)indolin-5-yl) acrylamide]",form conversion on drying,[4]; dried at RT in open air for 8 days and under vacuum for 16.5 hours,The sample converted to Type M after dried at RT in open
"O=C(/C=C/c1ccc2c(c1)CCN2S(=O)(=O)c1ccccc1)NO [Type A/Type B, (E)-N-hydroxy-3-(1-(phenylsulfonyl)indolin-5-yl) acrylamide]","Result (form obtained, competitive slurry)","[1]; 2-MeTHF, 50° C., 2 days",Type B
same,"Result (form obtained, competitive slurry)","[1]; 2-MeTHF, RT, 2 days",Type B + P
same,"Result (form obtained, competitive slurry)","[1]; Acetone (aw~0), RT, 2 days",Type D
same,"Result (form obtained, competitive slurry)","[1]; Acetone/H2O (95:5, aw~0.4), RT, 1 day",Type D
same,"Result (form obtained, competitive slurry)","[1]; Acetone/H2O (605:395, aw~0.8), RT, 1 day",Type D
same,"Result (form obtained, competitive slurry)","[1]; Acetone/H2O (857:143, aw~0.6), RT, 1 day",Type D
same,"Result (form obtained, competitive slurry)","[1]; Acetone/H2O (986:14, aw~0.2), RT, 1 day",Type D
same,"Result (form obtained, competitive slurry)","[1]; H2O, RT, 1 day",Type A
same,"Result (form obtained, competitive slurry)","[1]; MIBK, 50° C., 2 days",Type B
same,"Result (form obtained, competitive slurry)","[1]; MIBK, RT, 2 days",Type O
same,"Result (form obtained, competitive slurry)","[1]; Toluene, 50° C., 8 days",Type B
same,"Result (form obtained, competitive slurry)","[1]; Toluene, RT, 1 day, without molecular sieve, KF 0.0250 wt %, water activity 0.32",Type A
same,"Result (form obtained, competitive slurry)","[1]; Toluene, RT, 2 days, with molecular sieve, KF 0.0072 wt %, water activity 0.11",Type B
same,"Result (form obtained, competitive slurry)","[1]; n-Heptane, 50° C., 8 days",Type B
same,"Result (form obtained, competitive slurry)","[1]; n-Heptane, RT, 1 day, without molecular sieve, KF 0.0049 wt %, water activity 0.29",Type A
same,"Result (form obtained, competitive slurry)","[1]; n-Heptane, RT, 2 days, with molecular sieve, KF 0.0003 wt %, water activity 0.02",Type B
same,"Result (form obtained, competitive slurry)","[1]; t-Butanol, RT, 1 day, water activity 0.06",Type B
same,"Result (form obtained, competitive slurry)","[1]; t-Butanol/H2O (886:121), RT, 3 days, water activity 0.88",Type A
same,"Result (form obtained, competitive slurry)","[1]; t-Butanol/H2O (909:10), RT, 1 day, water activity 0.17",Type B
same,"Result (form obtained, competitive slurry)","[1]; t-Butanol/H2O (962:71), RT, 3 days, water activity 0.71",Type A
same,"Result (form obtained, competitive slurry)","[1]; t-Butanol/H2O (980:35), RT, 1 day, water activity 0.37",Type A
same,"Result (form obtained, competitive slurry)","[1]; t-Butanol/H2O (985:30), RT, 3 days, water activity 0.56",Type A
"O=C(/C=C/c1ccc2c(c1)CCN2S(=O)(=O)c1ccccc1)NO [Type P, (E)-N-hydroxy-3-(1-(phenylsulfonyl)indolin-5-yl) acrylamide]",form conversion on drying,[4]; dried at RT overnight,The sample converted to Type A after dried at RT overnight.

# Reference: patent US12252469B2, “Crystalline forms of (E)-N-hydroxy-3-(1-(phenylsulfonyl)indolin-5-yl)acrylamide” (ANBOGEN THERAPEUTICS INC., priority 2023, dated 2025)
